PubChem BioAssay (NCI)
Several values for one entry are separate records, joined by “and”; a condition that tells them apart may be missing. Equal entries are not always repeated.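 Dose response: 5 concentrations. Exposure: 48 h. Format: 96-well plates. Endpoint: linear interpolation; highest concentration if not reached. Here, GI50 denotes the concentration required for 50% inhibition of growth. TGI denotes the concentration required for complete inhibition of growth.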

How the values were obtained:
Assay in all cases: growth of human tumour cells (NCI), 48 h
UO-31 renal = system: UO-31 renal
MDA-MB-435 = system: MDA-MB-435
MOLT-4 leukemia = system: MOLT-4 leukemia
CCRF-CEM leukemia = system: CCRF-CEM leukemia
SW-620 colon = system: SW-620 colon
UACC-62 melanoma = system: UACC-62 melanoma
MALME-3M melanoma = system: MALME-3M melanoma
A549 NSCLC = system: A549 NSCLC
HT29 colon = system: HT29 colon
K-562 leukemia = system: K-562 leukemia
NCI-H522 lung = system: NCI-H522 lung
DU-145 prostate = system: DU-145 prostate
HCT-15 colon = system: HCT-15 colon
OVCAR-4 ovarian = system: OVCAR-4 ovarian
SK-MEL-5 melanoma = system: SK-MEL-5 melanoma
SNB-19 CNS = system: SNB-19 CNS
RXF 393 renal = system: RXF 393 renal
SK-MEL-2 melanoma = system: SK-MEL-2 melanoma
NCI-H226 lung = system: NCI-H226 lung
SK-MEL-28 melanoma = system: SK-MEL-28 melanoma
HOP-62 NSCLC = system: HOP-62 NSCLC
CAKI-1 renal = system: CAKI-1 renal
A498 renal = system: A498 renal
OVCAR-3 ovarian = system: OVCAR-3 ovarian
M14 melanoma = system: M14 melanoma
UACC-257 melanoma = system: UACC-257 melanoma
SF-268 CNS = system: SF-268 CNS
KM12 colon = system: KM12 colon
OVCAR-8 ovarian = system: OVCAR-8 ovarian
COLO 205 colon = system: COLO 205 colon

CC1OC(OC2C(OC(=O)[C@]34CCC(C)(C)C[C@H]3C3=CC[C@@H]5[C@@]6(C)CC[C@H](OC7OC(C(=O)O)C(O)C(OC8OCC(O)C(O)C8O)C7O)C(C)(C)[C@@H]6CC[C@@]5(C)[C@]3(C)CC4)OCC(O)C2O)C(O)C(OC2OCC(O)C(O)C2O)C1OC1OCC(O)C(OC2OCC(O)C(O)C2O)C1O (stereo not given in full)
TGI (UO-31 renal): 4.99 µM and 21.1 µM | GI50 (MDA-MB-435): 7.32 µM and 16.7 µM | TGI (MDA-MB-435): 20.1 µM and 32 µM | TGI (MOLT-4 leukemia): 25 µM and 49.8 µM | TGI (CCRF-CEM leukemia): 32.1 µM and 31.4 µM | GI50 (SW-620 colon): 13.6 µM and 27.4 µM | TGI (SW-620 colon): 29.5 µM and > 100 µM | TGI (UACC-62 melanoma): 36.1 µM and 58.1 µM | GI50 (MALME-3M melanoma): 10.6 µM and 28.6 µM | TGI (MALME-3M melanoma): 25.7 µM and 91 µM | GI50 (A549 NSCLC): 5.06 µM and 14.3 µM | TGI (A549 NSCLC): 16.9 µM and 28.4 µM | GI50 (HT29 colon): 4.28 µM and 11.9 µM | TGI (HT29 colon): 15 µM and 24.2 µM | GI50 (K-562 leukemia): 7.42 µM and 17.1 µM | TGI (K-562 leukemia): 21.4 µM and 33.6 µM | GI50 (NCI-H522 lung): 2.53 µM and 12.3 µM | TGI (NCI-H522 lung): 7.93 µM and 25.9 µM | TGI (DU-145 prostate): 40.6 µM and 85.1 µM | TGI (HCT-15 colon): 32.2 µM and 42.4 µM | TGI (OVCAR-4 ovarian): 21.6 µM and 37.6 µM | TGI (SK-MEL-5 melanoma): 29.6 µM and 35 µM | TGI (SNB-19 CNS): 23.2 µM and 44.2 µM | TGI (RXF 393 renal): 37.5 µM and 42.9 µM | GI50 (SK-MEL-2 melanoma): 6.31 µM and 17.3 µM | TGI (SK-MEL-2 melanoma): 14.5 µM and 34.2 µM | GI50 (NCI-H226 lung): 9.29 µM and 19.1 µM | TGI (NCI-H226 lung): 24.6 µM and 39.7 µM | GI50 (SK-MEL-28 melanoma): 5.5 µM and 16.3 µM | TGI (SK-MEL-28 melanoma): 15.9 µM and 30.8 µM | TGI (HOP-62 NSCLC): 30.7 µM and 32.6 µM | TGI (CAKI-1 renal): 18.8 µM and 23.1 µM | TGI (A498 renal): 4.79 µM and 8.63 µM | GI50 (OVCAR-3 ovarian): 13 µM and 35 µM | TGI (OVCAR-3 ovarian): 50.4 µM and > 100 µM | GI50 (M14 melanoma): 5.97 µM and 19.2 µM | TGI (M14 melanoma): 17 µM and 34 µM | GI50 (UACC-257 melanoma): 7.06 µM and 16.6 µM | TGI (UACC-257 melanoma): 20.2 µM and 32.5 µM | TGI (SF-268 CNS): 25.5 µM and 54.7 µM | GI50 (KM12 colon): 4.39 µM and 11.3 µM | TGI (KM12 colon): 15.8 µM and 23.7 µM | TGI (OVCAR-8 ovarian): 27.7 µM and 43.1 µM | GI50 (COLO 205 colon): 1.8 µM and 7.67 µM | TGI (COLO 205 colon): 3.63 µM and 20.4 µM
